Data taken from PMC10796436, “Peptidyl nitroalkene inhibitors of main protease rationalized by computational and crystallographic investigations as antivirals against SARS-CoV-2” (Communications Chemistry, 2024).
Values joined by “and” are separate entries in the source; they are usually repeats but may differ in a detail not shown here. Equal values may be shown once.

What was measured:
[1] = biological target: human matriptase (MT-SP1) (Homo sapiens, UniProt Q9Y5Y6); test: Matriptase inhibition, fluorometric assay; format: biochemical; conditions: 20 μM
Sequence of human matriptase (MT-SP1) (Q9Y5Y6 615-855 limits assumed, other chains not shown): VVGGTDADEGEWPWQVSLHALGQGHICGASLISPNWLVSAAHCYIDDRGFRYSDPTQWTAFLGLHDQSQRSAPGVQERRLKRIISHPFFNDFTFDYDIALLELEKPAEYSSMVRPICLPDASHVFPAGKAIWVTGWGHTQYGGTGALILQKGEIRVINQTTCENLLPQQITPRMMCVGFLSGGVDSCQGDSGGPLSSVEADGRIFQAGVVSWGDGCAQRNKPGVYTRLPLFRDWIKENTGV

[2] = biological target: T1, SARS-CoV-2 M^pro (Severe acute respiratory syndrome coronavirus 2, UniProt P0DTD1); test: biochemical; conditions: M^pro from pMal-M^pro vector
[3] = biological target: M^pro (Severe acute respiratory syndrome coronavirus 2, UniProt P0DTD1); test: biochemical; format: binding
[4] = biological target: T1, SARS-CoV-2 M^pro; test: Mpro FRET inhibition, continuous fluorometric assay (Fluorolog-3), enzyme from pET21-M^pro vector; format: biochemical; conditions: read-out: Ki (μM)^b
[5] = biological target: T2, cathepsin L (CatL) (Homo sapiens, UniProt P07711); test: Cathepsin L inhibition, fluorometric assay; format: biochemical
T2 construct: purchased Calbiochem (Merck Millipore)
T2 sequence (P07711 114-288 limits assumed): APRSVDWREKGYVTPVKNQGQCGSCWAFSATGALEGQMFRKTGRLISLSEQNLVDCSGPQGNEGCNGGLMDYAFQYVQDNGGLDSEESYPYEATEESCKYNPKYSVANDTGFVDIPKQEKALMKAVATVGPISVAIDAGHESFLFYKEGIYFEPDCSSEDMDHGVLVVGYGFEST
T2 sequence (P07711 292-333 limits assumed): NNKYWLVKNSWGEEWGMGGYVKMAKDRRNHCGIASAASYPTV

[6] = test system: SARS-CoV-2; test: microbe, parasite or virus in culture; format: cell-based; conditions: for virus titer Mean (%): mean of Exp.1-3; for virus titer (%) of conc 0 / virus titer (pfu/ml): single experiments
[7] = in vitro; conditions: human
[8] = biological target: Zika Virus NS2B/NS3 (bZiPro) (Zika virus, UniProt A0A024B7W1); test: Zika virus protease inhibition, fluorometric assay; format: biochemical; conditions: 20 μM
Sequence of Zika Virus NS2B/NS3 (bZiPro) (A0A024B7W1 1425-1464): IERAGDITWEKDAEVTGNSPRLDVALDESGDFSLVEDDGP
Sequence of Zika Virus NS2B/NS3 (bZiPro) (A0A024B7W1 1503-1680): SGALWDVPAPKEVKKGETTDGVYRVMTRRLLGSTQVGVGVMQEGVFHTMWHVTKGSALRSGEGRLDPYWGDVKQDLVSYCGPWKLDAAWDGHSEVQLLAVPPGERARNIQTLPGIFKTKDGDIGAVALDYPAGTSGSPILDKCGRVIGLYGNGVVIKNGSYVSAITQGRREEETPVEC

CC(C)C[C@H](NC(=O)OCc1ccccc1)C(=O)N[C@H](/C=C/[N+](=O)[O-])C[C@@H]1CCNC1=O [FGA147]
MT-SP1 [1]: n.i. (no inhibition (<10%) was observed at a concentration of 20 μM) | Ki [2]: 2.18 ± 0.19 µM | Tm of M^pro ([3]; 25 µM): 46.2 ± 0.1 °C | change of Tm of M^pro ([3]; 25 µM): −3.0 ± 0.1 °C | ΔTm at 25 µM ([3]; 25 µM, read-out: DTm (°C)): -3 °C | Tm of M^pro ([3]; 100 μM): 45.0 ± 0.2 °C | change of Tm of M^pro ([3]; 100 μM): −4.2 ± 0.2 °C | Fraction unfolded ([3]; 25 mM, 21.5 °C): 0.04278 | Fraction unfolded ([3]; 25 mM, 22 °C): 0.07148 | Fraction unfolded ([3]; 25 mM, 22.5 °C): 0.01751 | Fraction unfolded ([3]; 25 mM, 23 °C): -0.05389 | Fraction unfolded ([3]; 25 mM, 23.5 °C): -0.01968 | Fraction unfolded ([3]; 25 mM, 24 °C): 0.09885 | Fraction unfolded ([3]; 25 mM, 24.5 °C): 0.01751 | Fraction unfolded ([3]; 25 mM, 25 °C): 0.01414 | Fraction unfolded ([3]; 25 mM, 25.5 °C): -0.01034 | Fraction unfolded ([3]; 25 mM, 26 °C): 0.01683 | Fraction unfolded ([3]; 25 mM, 26.5 °C): 0.04278 | Fraction unfolded ([3]; 25 mM, 27 °C): 0.07148 | Fraction unfolded ([3]; 25 mM, 27.5 °C): -0.01421 | Fraction unfolded ([3]; 25 mM, 28 °C): -0.05389 | Fraction unfolded ([3]; 25 mM, 28.5 °C): -0.01968 | Fraction unfolded ([3]; 25 mM, 29 °C): 0.09885 | Fraction unfolded ([3]; 25 mM, 29.5 °C): 0.01751 | Fraction unfolded ([3]; 25 mM, 30 °C): -0.01678 | Fraction unfolded ([3]; 25 mM, 30.5 °C): 0.01948 | Fraction unfolded ([3]; 25 mM, 31 °C): 0.07312 | Fraction unfolded ([3]; 25 mM, 31.5 °C): 0.01304 | Fraction unfolded ([3]; 25 mM, 32 °C): 0.01813 | Fraction unfolded ([3]; 25 mM, 66.5 °C): 1.064 | Fraction unfolded ([3]; 25 mM, 67 °C): 1.093 | Fraction unfolded ([3]; 25 mM, 67.5 °C): 1.004 | Fraction unfolded ([3]; 25 mM, 68 °C): 1.064 | Fraction unfolded ([3]; 25 mM, 68.5 °C): 0.9281 | Fraction unfolded ([3]; 25 mM, 69 °C): 1.033 | Fraction unfolded ([3]; 25 mM, 69.5 °C): 0.9909 | Fraction unfolded ([3]; 25 mM, 70 °C): 0.9575 | Fraction unfolded ([3]; 25 mM, 70.5 °C): 1.011 | Fraction unfolded ([3]; 25 mM, 71 °C): 1.05 | Fraction unfolded ([3]; 25 mM, 71.5 °C): 1.061 | Fraction unfolded ([3]; 25 mM, 72 °C): 0.9314 | Fraction unfolded ([3]; 25 mM, 72.5 °C): 1.024 | Fraction unfolded ([3]; 25 mM, 73 °C): 1.027 | Fraction unfolded ([3]; 25 mM, 73.5 °C): 1.08 | Fraction unfolded ([3]; 25 mM, 74 °C): 1 | Fraction unfolded ([3]; 25 mM, 74.5 °C): 0.9793 | Fraction unfolded ([3]; 25 mM, 75 °C): 0.8934 | Fraction unfolded ([3]; 25 mM, 75.5 °C): 0.9799 | Fraction unfolded ([3]; 25 mM, 76 °C): 1.027 | Fraction unfolded ([3]; 25 mM, 76.5 °C): 0.9678 | Fraction unfolded ([3]; 25 mM, 77 °C): 0.9735 | Fraction unfolded ([3]; 25 mM, 77.5 °C): 0.9321 | Fraction unfolded ([3]; 25 mM, 78 °C): 1.0047 | Fraction unfolded ([3]; 25 mM, 78.5 °C): 1.022 | Fraction unfolded ([3]; 25 mM, 79 °C): 0.9456 | Fraction unfolded ([3]; 25 mM, 79.5 °C): 1.012 | Fraction unfolded ([3]; 25 mM, 80 °C): 0.9456 | Fraction unfolded ([3]; 100 mM, 21.5 °C): -0.02084 | Fraction unfolded ([3]; 100 mM, 22 °C): -0.00506 | Fraction unfolded ([3]; 100 mM, 22.5 °C): 0.01094 | Fraction unfolded ([3]; 100 mM, 23 °C): 0.02167 | Fraction unfolded ([3]; 100 mM, 23.5 °C): -0.03337 | Fraction unfolded ([3]; 100 mM, 24 °C): -0.04925 | Fraction unfolded ([3]; 100 mM, 24.5 °C): -0.01302 | Fraction unfolded ([3]; 100 mM, 25 °C): 0.0174 | Fraction unfolded ([3]; 100 mM, 25.5 °C): 0.07455 | Fraction unfolded ([3]; 100 mM, 26 °C): -0.07318 | Fraction unfolded ([3]; 100 mM, 26.5 °C): 0.02179 | Fraction unfolded ([3]; 100 mM, 27 °C): -0.00134 | Fraction unfolded ([3]; 100 mM, 27.5 °C): 0.02966 | Fraction unfolded ([3]; 100 mM, 28 °C): -0.07997 | Fraction unfolded ([3]; 100 mM, 28.5 °C): -0.01931 | Fraction unfolded ([3]; 100 mM, 29 °C): 0.05111 | Fraction unfolded ([3]; 100 mM, 29.5 °C): 0.02685 | Fraction unfolded ([3]; 100 mM, 30 °C): 0.06732 | Fraction unfolded ([3]; 100 mM, 30.5 °C): -0.02735 | Fraction unfolded ([3]; 100 mM, 31 °C): 0.01656 | Fraction unfolded ([3]; 100 mM, 31.5 °C): -0.02084 | Fraction unfolded ([3]; 100 mM, 32 °C): -0.00506 | Fraction unfolded ([3]; 100 mM, 66.5 °C): 1.07 | Fraction unfolded ([3]; 100 mM, 67 °C): 1.013 | Fraction unfolded ([3]; 100 mM, 67.5 °C): 0.9992 | Fraction unfolded ([3]; 100 mM, 68 °C): 1.02 | Fraction unfolded ([3]; 100 mM, 68.5 °C): 1.071 | Fraction unfolded ([3]; 100 mM, 69 °C): 0.9861 | Fraction unfolded ([3]; 100 mM, 69.5 °C): 1.008 | Fraction unfolded ([3]; 100 mM, 70 °C): 1.064 | Fraction unfolded ([3]; 100 mM, 70.5 °C): 0.8899 | Fraction unfolded ([3]; 100 mM, 71 °C): 1.057 | Fraction unfolded ([3]; 100 mM, 71.5 °C): 1.048 | Fraction unfolded ([3]; 100 mM, 72 °C): 1.1085 | Fraction unfolded ([3]; 100 mM, 72.5 °C): 1.099 | Fraction unfolded ([3]; 100 mM, 73 °C): 0.9672 | Fraction unfolded ([3]; 100 mM, 73.5 °C): 1.047 | Fraction unfolded ([3]; 100 mM, 74 °C): 0.9312 | Fraction unfolded ([3]; 100 mM, 74.5 °C): 1.062 | Fraction unfolded ([3]; 100 mM, 75 °C): 1.063 | Fraction unfolded ([3]; 100 mM, 75.5 °C): 1.018 | Fraction unfolded ([3]; 100 mM, 76 °C): 0.9202 | Fraction unfolded ([3]; 100 mM, 76.5 °C): 1.013 | Fraction unfolded ([3]; 100 mM, 77 °C): 0.9957 | Fraction unfolded ([3]; 100 mM, 77.5 °C): 1.0714 | Fraction unfolded ([3]; 100 mM, 78 °C): 0.8845 | Fraction unfolded ([3]; 100 mM, 78.5 °C): 0.9237 | Fraction unfolded ([3]; 100 mM, 79 °C): 1.0367 | Fraction unfolded ([3]; 100 mM, 79.5 °C): 0.9498 | Fraction unfolded ([3]; 100 mM, 80 °C): 0.9799 | Ki [4]: 1.33 ± 0.05 µM | Ki [5]: 1990 ± 107 nM | EC50 ([6]; Severe acute respiratory syndrome coronavirus 2, 24 h, Huh-7-ACE2, 24h p.t., MOI=0.1): 1900 nM | virus titer Mean (%) ([6]; conc 0.1): 153.333% | virus titer (%) of conc 0 ([6]; conc 0.1): 160% and 180% and 120% | virus titer (pfu/ml) ([6]; conc 0.1): 1600000 pfu/ml and 1800000 pfu/ml and 2400000 pfu/ml | virus titer Mean (%) ([6]; conc 0.5): 83.3333% | virus titer (pfu/ml) ([6]; conc 0.5): 1000000 pfu/ml and 1200000 pfu/ml and 600000 pfu/ml | virus titer Mean (%) ([6]; conc 1): 85% | virus titer Mean (%) ([6]; conc 5): 0.5017% | virus titer (%) of conc 0 ([6]; conc 5): 1% and 0.365% and 0.14% | virus titer Mean (%) ([6]; conc 10): 0.08% | virus titer (%) of conc 0 ([6]; conc 10): 0.04% and 0.15% and 0.05% | virus titer Mean (%) ([6]; conc 50): 0.025% | virus titer (%) of conc 0 ([6]; conc 50): 0.06% and 0.012% and 0.003% | virus titer Mean (%) ([6]; conc 100): 0.01767% | virus titer (%) of conc 0 ([6]; conc 100): 0.02% and 0.026% and 0.007% | virus titer (pfu/ml) ([6]; conc 100): 200 pfu/ml and 260 pfu/ml and 140 pfu/ml | CC50 [7]: > 100000 nM | bZiPro [8]: n.i. (no inhibition (<10%) was observed at a concentration of 20 μM)
